Source: patent US10758541B2, “Formulations of milciclib and therapeutic combinations of the same for use in the treatment of cancer” (Tiziana Life Sciences PLC, priority 2017, dated 2020)
Like-named read-outs stand apart in the source and are kept apart here.

What was measured:
HepG2.2.15 cells = assay: IC50 values by cell proliferation assay (WST-1); type: cell-based; settings: Homo sapiens, read-out: HepG2.2.15 IC50
Excerpt: (§1) See Shailubhai, K et al. “Atiprimod is an inhibitor of cancer cell proliferation and angiogenesis.” J Exp Ther Oncol. 2004; 4: 267-279; and Choudhari et al. “Deactivation of Akt and STAT3 signaling promotes apoptosis, inhibits proliferation, and enhances the sensitivity of hepatocellular carcinoma cells to an anticancer agent, atiprimod” Molecular Cancer Therapeutics. 2007; 6: 112-121. References are incorporated herein in their entireties.
HepG2.2.15 cells are derived from the human hepatoblastoma cell line HepG2.
(§2) Cells (MHCC97H, MHCC97L, and HepG2.2.15) were cultured for 24 hours in 2% FBS and then were trypsinized, resuspended in 2% FBS and seeded in a rat collagen coated 96-well plate at a density of 10,000 cells/100 μl/well, a day before the experiment and cultured at 37° C. in 5% CO2. The cells were treated the next day with milciclib, sorafenib, regorafenib, sunitinib, and lenvatinib, individually or in combination in DMEM/F12+2% FBS+for 72 hours prior to the addition of WST-1 reagent. About 100 μL media was added to control well. After cells had been cultured for 72 hours with different drug concentrations, cells were washed 3 times with sterile 1× Phosphate buffered saline (PBS). To determine cell proliferation by the colorimetric test, 10 μL of WST-1 reagent (Sigma Aldrich, St Louis, Mo.) was added in 100 μL cell culture media and incubated for 2 hours in 5% CO2 at 37° C. At the end of incubation period, the plate was placed on a plate shaker for 1 minute and was monitored using a spectrophotometer at an optical density of 450 nm with a reference wavelength of 600 nm using Tecan F200 and iControl software. IC50 values were determined using GraphPad Prism (GraphPad Software, La Jolla, Calif.). Each experiment was performed in duplicate and repeated 2 times.

MHCC97H cells [1] = assay: IC50 values by cell proliferation assay (WST-1); type: cell-based, human
Procedure: (§3) MHCC97H and MHCC97L (highly metastatic hepatocellular carcinoma cell line, derived from humans)
as §2, with “After cells had been cultured for 72 hours with different drug concentrations, cells were washed 3 times with sterile 1× Phosphate buffered saline (PBS).” left out

MHCC97L cells [2] = assay: IC50 values by cell proliferation assay (WST-1); type: cell-based; settings: Homo sapiens, individual inhibitor, 72 hours
Excerpt: as §1, §3, §2

MHCC97H cells [3] = assay: EMT transwell invasion assay; type: cell-based, human; settings: in combination with milciclib, vs individual treatment, P<0.005
Procedure: (§4) EMT (Epithelial to Mesenchymal Transition) induction employing kit from R&D systems (Cat # CCM017)
(§5) For transwell invasion assay HCC cells were seeded in the top chamber in 6 well transwell plates (Sigma-Aldrich, St. Louis, Mo.) at a density of 100,000 cells/500 μL/well in standard culture media containing 100× StemXVivo® EMT Inducing Media Supplement (R&D systems, Minneapolis, Minn.) and was incubated overnight at 37° C. in humidified CO2 incubator. Next day, EMT inducing media with or without the test articles was added and incubation was continued for 10 days with media changes every 3 days. On the 10th day, the number of cells migrated to the lower chamber was determined using Bio-Rad (Hercules, Calif.) automatic cell counter. Values obtained were expressed as a percentage of invasion and the cell counts of control cells were considered 100%.
(§6) The invasive potential of cancer cells is dependent on losing epithelial characteristics and acquiring a migratory mesenchymal property referred to as Epithelial to Mesenchymal Transition (EMT).

MHCC97L cells [4] = assay: EMT transwell invasion assay; type: cell-based, human; settings: in combination with milciclib, vs individual treatment, P<0.005
Procedure: as §4, §5, §6

[5] = tested on: MHCC97H human liver cells; assay: Orthotopic tumor induction in athymic nude mice; type: in vivo; settings: oral, once daily day 12 to 47; milciclib 30 mg/kg/day, sorafenib 20 mg/kg/day; vs vehicle
Procedure: Mouse experiments were performed in accordance with the guidelines approved by the Institutional Animal Care and use committee of Washington Biotechnology Inc (Baltimore, Md.) where the studies were conducted. (FIG. 66) Test agents were dissolved in chremophor/ethanol (1:1) to make a 5× stock solution and diluted in water when used. MHCC97H human liver cells (5×106) in PBS were mixed with 20% Matrigel and then inoculated orthotopically into the right flank of female Balb/c nude mice. Seven days after cell inoculation, the mice were randomly allocated to either the treatment group (n=12) or the control group (n=12) based on the levels of AFP. The daily animal inspection was conducted for general appearance and tumor growth. Milciclib (30 mg/Kg), sorafenib (20 mg/Kg), milciclib+sorafenib or the corresponding vehicle was given orally to individual mice once daily from day 12 until day 47. After completion of the treatment at day 48, animals were euthanized and blood, liver tissues and tumor were collected for gene expression and mechanistic assays. Liver tumors developed 100% of animals challenged with orthotopic MHCC97H injection.

alpha-fetoprotein (AFP) = assay: Serum AFP in orthotopic HCC mouse model; type: in vivo, mice; settings: milciclib 30 mg/kg, sorafenib 20 mg/kg, oral, vs vehicle
Procedure: MHCC97H cells were seeded at a density of 500,000 cells/2 mL/well on a 6 well culture plate and incubated overnight at 37° C. in a humidified CO2 incubator. Cells were then treated with 1.3 μM milciclib or vehicle in DMEM/F12+2% FBS for 72 hours. Subsequently, cells were lysed in RIPA buffer, the supernatant was collected and used to perform ELISA assay as per the manufacturer's instructions. In orthotopic HCC mouse model, levels of serum marker alpha-fetoprotein (AFP) were determined on day 0, 6, 12, 18, 24, 30, 36, 42 and 48 using High Range AFP kit as per manufacturer's instructions.
Mouse experiments were performed in accordance with the guidelines approved by the Institutional Animal Care and use committee of Washington Biotechnology Inc (Baltimore, Md.) where the studies were conducted. (FIG. 66) Test agents were dissolved in chremophor/ethanol (1:1) to make a 5× stock solution and diluted in water when used. MHCC97H human liver cells (5×106) in PBS were mixed with 20% Matrigel and then inoculated orthotopically into the right flank of female Balb/c nude mice. Seven days after cell inoculation, the mice were randomly allocated to either the treatment group (n=12) or the control group (n=12) based on the levels of AFP. The daily animal inspection was conducted for general appearance and tumor growth. […]

miR-221 and miR-222 = assay: miRNA isolation and expression analysis of tumor tissues; type: in vivo; settings: tumor tissues from orally treated mice, vs vehicle
Procedure: miRNA from athymic nude mice following treatment with vehicle, milciclib, sorafenib, or milciclib+sorafenib was isolated from Total RNA using the TaqMan Advanced miRNA cDNA Synthesis Kit (Thermo Fisher Scientific, Rockford, Ill.) according to the manufacturer's instructions. miRNA-221 and miR-222 quantifications were performed in duplicates using TaqMan Advanced miRNA Assay (Thermo Fisher Scientific, Rockford, Ill.) with a sample dilution of 1:10. The PCR mixture was incubated at 95° C. for 20 seconds, followed by 40 cycles of 95° C. for 3 seconds and 60° C. for 30 seconds. Results were normalized to hsa-miR-192-5p as reference miRNA and the relative gene expression calculated as 2−ΔCT was expressed as fold increase over control samples.
Tumor tissues from mice treated with vehicle, sorafenib, milciclib, milciclib+sorafenib and normal liver tissues from naïve untreated mice were collected and levels of miR-221 and miR-222 were determined. The levels of both of miR-221 and miR-222 were elevated in tumors from vehicle treated mice.

[6] = Homo sapiens, MHCC97H, individual inhibitor, 72 hours, WST-1, read-out: MHCC97H IC50
[7] = Homo sapiens, MHCC97H cells, in combination with fixed 1.3 μM milciclib, read-out: IC50 (μM) KINASE INHIBITORS + 1.3 μM MILCICLIB
[8] = Homo sapiens, MHCC97H cells, inhibitor alone (synergy studies), read-out: IC50 (μM) OF KINASE INHIBITORS
[9] = MHCC97H cells, in combination with fixed 1.3 μM milciclib, read-out: IC50 (μM) KINASE INHIBITORS + 1.3 μM MILCICLIB
[10] = HepG2.2.15, individual inhibitor, 72 hours, WST-1
[11] = Homo sapiens, MHCC97H, 72 h, MHCC97H cells, inhibitor alone (synergy studies), read-out: IC50 (μM) OF KINASE INHIBITORS

COc1cc2nccc(Oc3ccc(NC(=O)NC4CC4)c(Cl)c3)c2cc1C(N)=O [LENVATINIB, lenvatinib]
IC50 (HepG2.2.15 cells; HepG2.2.15, 72 h): 0.24 µM | IC50 (MHCC97H cells [1]; [6]): 0.28 µM | IC50 (MHCC97H cells [1]; [7]): 0.12 µM | IC50 (MHCC97H cells [1]; [8]): 0.28 µM | IC50 (MHCC97L cells [2]): 0.14 µM | invasion potential (MHCC97H cells [3]): reduced the invasion potential to a greater extent | invasion potential (MHCC97L cells [4]): reduced the invasion potential to a greater extent

CC(=O)c1c(C)c2cnc(Nc3ccc(N4CCNCC4)cn3)nc2n(C2CCCC2)c1=O [PALBOCICLIB, palbociclib]
IC50 (HepG2.2.15 cells; HepG2.2.15, 72 h): 11.1 µM | IC50 (MHCC97H cells [1]; Homo sapiens, 72 h, MHCC97H cells, inhibitor alone (synergy studies), read-out: IC50 (μM) OF KINASE INHIBITORS): 14.5 µM | IC50 (MHCC97H cells [1]; [6]): 14.5 µM | IC50 (MHCC97H cells [1]; [9]): 6.7 µM | IC50 (MHCC97L cells [2]): 8.2 µM

CNC(=O)c1cc(Oc2ccc(NC(=O)Nc3ccc(Cl)c(C(F)(F)F)c3)c(F)c2)ccn1 [REGORAFENIB, regorafenib]
IC50 (HepG2.2.15 cells; [10]): 3.94 µM | IC50 (MHCC97H cells [1]; [6]): 4.7 µM | IC50 (MHCC97H cells [1]; [7]): 1.9 µM | IC50 (MHCC97H cells [1]; [8]): 4.7 µM | IC50 (MHCC97L cells [2]): 3.5 µM | invasion potential (MHCC97H cells [3]): reduced the invasion potential to a greater extent | invasion potential (MHCC97L cells [4]): reduced the invasion potential to a greater extent

CNC(=O)c1cc(Oc2ccc(NC(=O)Nc3ccc(Cl)c(C(F)(F)F)c3)cc2)ccn1 [SORAFENIB, sorafenib]
reducing tumor growth [5]: 21% | serum AFP levels (alpha-fetoprotein (AFP)): Significantly lower | IC50 (HepG2.2.15 cells; [10]): 6.48 µM | expression of miR-221 and miR-222 (miR-221 and miR-222): modestly reduced | IC50 (MHCC97H cells [1]; [11]): 12 µM | IC50 (MHCC97H cells [1]; Homo sapiens, MHCC97H, MHCC97H cells, in combination with fixed 1.3 μM milciclib, read-out: IC50 (μM) KINASE INHIBITORS + 1.3 μM MILCICLIB): 6.7 µM | IC50 (MHCC97H cells [1]; Homo sapiens, MHCC97H, MHCC97H cells, inhibitor alone (synergy studies), read-out: IC50 (μM) OF KINASE INHIBITORS): 12 µM | IC50 (MHCC97H cells [1]; [6]): 12 µM | IC50 (MHCC97L cells [2]): 8.8 µM | invasion potential (MHCC97H cells [3]): reduced the invasion potential to a greater extent | invasion potential (MHCC97L cells [4]): reduced the invasion potential to a greater extent

CCN(CC)CCNC(=O)c1c(C)[nH]c(/C=C2\C(=O)Nc3ccc(F)cc32)c1C [SUNITINIB, sunitinib]
IC50 (HepG2.2.15 cells; [10]): 25.4 µM | IC50 (MHCC97H cells [1]; [11]): 30.4 µM | IC50 (MHCC97H cells [1]; Homo sapiens, MHCC97H, 72 h, individual inhibitor, 72 hours, WST-1, read-out: MHCC97H IC50): 30.5 µM | IC50 (MHCC97H cells [1]; [9]): 17.2 µM | IC50 (MHCC97L cells [2]): 8.2 µM
